From patent US20180371044A1, “PEPTIDOMIMETIC MACROCYCLES” (Aileron Therapeutics, Inc., priority 2015, published 2018) come the findings set out here.

Usually EC50 stands for the midpoint of the concentration-response curve.

Where a SMILES comes first, the peptide text is derived from it. Bridges are numbered along the chain shown (N, C = ends). [ ]: non-standard residue; d: D form. NMeY = CN[C@@H](Cc1ccc(O)cc1)C(=O)O; R8 = C=CCCCCCC[C@@](C)(N)C(=O)O; S5 = C=CCCC[C@](C)(N)C(=O)O; hSer = N[C@@H](CCO)C(=O)O; Nle = CCCC[C@H](N)C(=O)O; Aib = CC(C)(N)C(=O)O

The experiment has as its target T1, human GHRH receptor (hGHRHR) (Homo sapiens, UniProt Q02643).
T1 construct: expressed in transfected cells; host or cells: Human 293 cells
T1 sequence (Q02643 23-423): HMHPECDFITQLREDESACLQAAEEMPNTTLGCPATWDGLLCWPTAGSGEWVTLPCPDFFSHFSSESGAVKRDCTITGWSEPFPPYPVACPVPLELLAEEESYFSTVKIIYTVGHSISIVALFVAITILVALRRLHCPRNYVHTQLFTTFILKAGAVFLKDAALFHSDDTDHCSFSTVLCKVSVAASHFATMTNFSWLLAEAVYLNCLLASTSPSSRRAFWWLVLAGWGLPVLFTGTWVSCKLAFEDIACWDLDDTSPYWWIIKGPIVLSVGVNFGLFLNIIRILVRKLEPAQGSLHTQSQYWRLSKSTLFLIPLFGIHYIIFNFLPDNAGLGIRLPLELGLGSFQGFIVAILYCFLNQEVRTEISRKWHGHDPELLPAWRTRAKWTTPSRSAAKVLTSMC
The experiment can be described thus: GHRHR agonism measured by cAMP (HTRF) in human 293 cells expressing hGHRHR.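 Note: receptor expressed transiently or stably, cells stimulated in serum-free medium, EC50 from a non-linear dose-response fit, maximal response defined by reference GHRH stimulation.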 Format: cell-based. Conditions: 30 min at RT. (In general: TR-FRET usually uses a lanthanide donor and a delayed reading to cut background.)

`CCCC[C@H](NC(=O)[C@@H](NC(=O)[C@H](CC(=O)O)NC(=O)[C@H](CCC(N)=O)NC(=O)[C@H](CC(C)C)NC(=O)[C@H](C)NC(=O)[C@H](CCCCN)NC(=O)[C@H](CCCNC(=N)N)NC(=O)[C@]1(C)CCCC=CCCCCCC[C@@](C)(NC(=O)[C@H](CCCNC(=N)N)NC(=O)[C@H](Cc2ccc(O)cc2)NC(=O)[C@H](CO)NC(=O)[C@H](C)NC(=O)[C@@H](NC(=O)[C@H](Cc2ccccc2)NC(=O)[C@@H](NC(=O)[C@H](C)NC(=O)[C@H](CC(=O)O)NC(=O)[C@@H](C)NC(=O)[C@H](Cc2ccc(O)cc2)NC(=O)[C@@H]2CCCN2C(=O)[C@@H]2CCCN2)[C@@H](C)CC)[C@@H](C)O)C(=O)N[C@@H](C(C)C)C(=O)N[C@@H](CC(C)C)C(=O)N[C@@H](C)C(=O)N[C@@H](CCC(N)=O)C(=O)N[C@@H](CC(C)C)C(=O)N[C@@H](CO)C(=O)N1)[C@@H](C)CC)C(=O)N[C@@H](CO)C(=O)N[C@@H](CCCNC(=N)N)C(N)=O` [SP-56] (H-PPY[dA]DAIFTASYR[R8]VLAQLS[S5]RKALQDI[Nle]SR-NH2; staple 14-21) registered an EC50 above 50 nM. With `CCCC[C@H](NC(=O)[C@@H](NC(=O)[C@H](CC(=O)O)NC(=O)[C@H](CCC(N)=O)NC(=O)[C@H](CC(C)C)NC(=O)[C@H](C)NC(=O)[C@H](CCCCN)NC(=O)[C@H](CCCNC(=N)N)NC(=O)[C@]1(C)CCCC=CCCCCCC[C@@](C)(NC(=O)[C@H](CCCNC(=N)N)NC(=O)[C@H](Cc2ccc(O)cc2)NC(=O)[C@H](CO)NC(=O)[C@H](C)NC(=O)[C@@H](NC(=O)[C@H](Cc2ccccc2)NC(=O)[C@@H](NC(=O)[C@H](C)NC(=O)[C@H](CC(=O)O)NC(=O)[C@H](C)NC(=O)[C@H](Cc2ccc(O)cc2)NC)[C@@H](C)CC)[C@@H](C)O)C(=O)N[C@@H](C(C)C)C(=O)N[C@@H](CC(C)C)C(=O)N[C@@H](C)C(=O)N[C@@H](CCC(N)=O)C(=O)N[C@@H](CC(C)C)C(=O)N[C@@H](CO)C(=O)N1)[C@@H](C)CC)C(=O)N[C@@H](CO)C(=O)N[C@@H](CCCNC(=N)N)C(N)=O` [SP-57] the figure was 10 to 25 nM. The value for `CCCC[C@H](NC(=O)[C@@H](NC(=O)[C@H](CC(=O)O)NC(=O)[C@H](CCC(N)=O)NC(=O)[C@H](CC(C)C)NC(=O)[C@H](C)NC(=O)[C@H](CCCCN)NC(=O)[C@H](CCCNC(=N)N)NC(=O)[C@]1(C)CCCC=CCCCCCC[C@@](C)(NC(=O)[C@H](CCCNC(=N)N)NC(=O)[C@H](Cc2ccc(O)cc2)NC(=O)[C@H](CO)NC(=O)[C@H](C)NC(=O)[C@@H](NC(=O)[C@H](Cc2ccccc2)NC(=O)[C@@H](NC(=O)[C@H](C)NC(=O)[C@H](CC(=O)O)NC(=O)[C@H](C)NC(=O)[C@H](Cc2ccc(O)cc2)NC)[C@@H](C)CC)[C@@H](C)O)C(=O)N[C@@H](C(C)C)C(=O)N[C@@H](CC(C)C)C(=O)N[C@@H](C)C(=O)N[C@@H](CCC(N)=O)C(=O)N[C@@H](CC(C)C)C(=O)N[C@@H](CO)C(=O)N1)[C@@H](C)CC)C(=O)N[C@@H](CO)C(=O)N[C@@H](CCCNC(=N)N)C(=O)N[C@@H](CCC(=O)O)C(=O)N[C@@H](CCC(=O)O)C(=O)N[C@@H](CCC(=O)O)C(N)=O` [SP-59] (H-[NMeY]ADAIFTASYR[R8]VLAQLS[S5]RKALQDI[Nle]SREEE-NH2; staple 12-19) was 25 to 50 nM. The compound `CCCC[C@H](NC(=O)[C@@H](NC(=O)[C@H](CC(=O)O)NC(=O)[C@H](CCC(N)=O)NC(=O)[C@H](CC(C)C)NC(=O)[C@H](C)NC(=O)[C@H](CCCCN)NC(=O)[C@H](CCCNC(=N)N)NC(=O)[C@]1(C)CCCC=CCCCCCC[C@@](C)(NC(=O)[C@H](CCCNC(=N)N)NC(=O)[C@H](Cc2ccc(O)cc2)NC(=O)[C@H](CO)NC(=O)[C@H](C)NC(=O)[C@@H](NC(=O)[C@H](Cc2ccccc2)NC(=O)[C@@H](NC(=O)[C@H](C)NC(=O)[C@H](CC(=O)O)NC(=O)[C@H](C)NC(=O)[C@H](Cc2ccc(O)cc2)NC)[C@@H](C)CC)[C@@H](C)O)C(=O)N[C@@H](C(C)C)C(=O)N[C@@H](CC(C)C)C(=O)N[C@@H](C)C(=O)N[C@@H](CCC(N)=O)C(=O)N[C@@H](CC(C)C)C(=O)N[C@@H](CO)C(=O)N1)[C@@H](C)CC)C(=O)N[C@@H](CO)C(N)=O` [SP-60] (H-[NMeY]ADAIFTASYR[R8]VLAQLS[S5]RKALQDI[Nle]S-NH2; staple 12-19) gave an EC50 of 25 to 50 nM. In turn, `CCCC[C@H](NC(=O)[C@@H](NC(=O)[C@H](C)NC(=O)[C@H](CCC(N)=O)NC(=O)[C@H](CC(C)C)NC(=O)[C@H](C)NC(=O)[C@H](CCCCN)NC(=O)[C@H](CCCNC(=N)N)NC(=O)[C@]1(C)CCCC=CCCCCCC[C@@](C)(NC(=O)[C@H](CCCNC(=N)N)NC(=O)[C@H](Cc2ccc(O)cc2)NC(=O)[C@H](CO)NC(=O)[C@H](C)NC(=O)[C@@H](NC(=O)[C@H](Cc2ccccc2)NC(=O)[C@@H](NC(=O)[C@H](C)NC(=O)[C@H](CC(=O)O)NC(=O)[C@H](C)NC(=O)[C@H](Cc2ccc(O)cc2)NC)[C@@H](C)CC)[C@@H](C)O)C(=O)N[C@@H](C(C)C)C(=O)N[C@@H](CC(C)C)C(=O)N[C@@H](C)C(=O)N[C@@H](CCC(N)=O)C(=O)N[C@@H](CC(C)C)C(=O)N[C@@H](CO)C(=O)N1)[C@@H](C)CC)C(=O)N[C@@H](CO)C(=O)N[C@@H](CCCNC(=N)N)C(N)=O` [SP-61] (H-[NMeY]ADAIFTASYR[R8]VLAQLS[S5]RKALQAI[Nle]SR-NH2; staple 12-19) gave an EC50 of 10 to 25 nM. With `CCCC[C@H](NC(=O)[C@H](C)NC(=O)[C@H](CC(=O)O)NC(=O)[C@H](CCC(N)=O)NC(=O)[C@H](CC(C)C)NC(=O)[C@H](C)NC(=O)[C@H](CCCCN)NC(=O)[C@H](CCCNC(=N)N)NC(=O)[C@]1(C)CCCC=CCCCCCC[C@@](C)(NC(=O)[C@H](CCCNC(=N)N)NC(=O)[C@H](Cc2ccc(O)cc2)NC(=O)[C@H](CO)NC(=O)[C@H](C)NC(=O)[C@@H](NC(=O)[C@H](Cc2ccccc2)NC(=O)[C@@H](NC(=O)[C@H](C)NC(=O)[C@H](CC(=O)O)NC(=O)[C@H](C)NC(=O)[C@H](Cc2ccc(O)cc2)NC)[C@@H](C)CC)[C@@H](C)O)C(=O)N[C@@H](C(C)C)C(=O)N[C@@H](CC(C)C)C(=O)N[C@@H](C)C(=O)N[C@@H](CCC(N)=O)C(=O)N[C@@H](CC(C)C)C(=O)N[C@@H](CO)C(=O)N1)C(=O)N[C@@H](CO)C(=O)N[C@@H](CCCNC(=N)N)C(N)=O` [SP-62] (H-[NMeY]ADAIFTASYR[R8]VLAQLS[S5]RKALQDA[Nle]SR-NH2; staple 12-19) the figure was 25 to 50 nM; with `CCCC[C@H](NC(=O)[C@@H](NC(=O)[C@H](CC(=O)O)NC(=O)[C@H](CCC(N)=O)NC(=O)[C@H](CC(C)C)NC(=O)C(C)(C)NC(=O)[C@H](CCCCN)NC(=O)[C@H](CCCNC(=N)N)NC(=O)[C@]1(C)CCCC=CCCCCCC[C@@](C)(NC(=O)[C@H](CCCNC(=N)N)NC(=O)[C@H](Cc2ccc(O)cc2)NC(=O)[C@H](CO)NC(=O)[C@H](C)NC(=O)[C@@H](NC(=O)[C@H](Cc2ccccc2)NC(=O)[C@@H](NC(=O)[C@H](C)NC(=O)[C@H](CC(=O)O)NC(=O)[C@H](C)NC(=O)[C@H](Cc2ccc(O)cc2)NC)[C@@H](C)CC)[C@@H](C)O)C(=O)N[C@@H](C(C)C)C(=O)N[C@@H](CC(C)C)C(=O)N[C@@H](C)C(=O)N[C@@H](CCC(N)=O)C(=O)N[C@@H](CC(C)C)C(=O)N[C@@H](CO)C(=O)N1)[C@@H](C)CC)C(=O)N[C@@H](CO)C(=O)N[C@@H](CCCNC(=N)N)C(N)=O` [SP-65] (H-[NMeY]ADAIFTASYR[R8]VLAQLS[S5]RK[Aib]LQDI[Nle]SR-NH2; staple 12-19), 25 to 50 nM. With `CCCC[C@H](NC(=O)[C@@H](NC(=O)[C@H](CC(=O)O)NC(=O)C(C)(C)NC(=O)[C@H](CC(C)C)NC(=O)[C@H](C)NC(=O)[C@H](CCCCN)NC(=O)[C@H](CCCNC(=N)N)NC(=O)[C@]1(C)CCCC=CCCCCCC[C@@](C)(NC(=O)[C@H](CCCNC(=N)N)NC(=O)[C@H](Cc2ccc(O)cc2)NC(=O)[C@H](CO)NC(=O)C(C)(C)NC(=O)[C@@H](NC(=O)[C@H](Cc2ccccc2)NC(=O)[C@@H](NC(=O)[C@H](C)NC(=O)[C@H](CC(=O)O)NC(=O)[C@H](C)NC(=O)[C@H](Cc2ccc(O)cc2)NC)[C@@H](C)CC)[C@@H](C)O)C(=O)N[C@@H](C(C)C)C(=O)N[C@@H](CC(C)C)C(=O)N[C@@H](C)C(=O)N[C@@H](CCC(N)=O)C(=O)N[C@@H](CC(C)C)C(=O)N[C@@H](CO)C(=O)N1)[C@@H](C)CC)C(=O)N[C@@H](CO)C(=O)N[C@@H](CCCNC(=N)N)C(N)=O` [SP-67] (H-[NMeY]ADAIFT[Aib]SYR[R8]VLAQLS[S5]RKAL[Aib]DI[Nle]SR-NH2; staple 12-19) the figure was 10 to 25 nM. The compound `CC[C@H](C)[C@H](NC(=O)[C@H](C)NC(=O)[C@H](CC(=O)O)NC(=O)[C@H](C)NC(=O)[C@H](Cc1ccc(O)cc1)NC)C(=O)N[C@@H](Cc1ccccc1)C(=O)N[C@H](C(=O)N[C@@H](C)C(=O)N[C@@H](CO)C(=O)N[C@@H](Cc1ccc(O)cc1)C(=O)N[C@@H](CCCNC(=N)N)C(=O)N[C@]1(C)CCCCCCC=CCCC[C@@](C)(C(=O)N[C@@H](CCCNC(=N)N)C(=O)N[C@@H](CCCCN)C(=O)N[C@@H](C)C(=O)N[C@@H](CC(C)C)C(=O)N[C@@H](CCC(N)=O)C(=O)N[C@@H](CC(=O)O)C(=O)N[C@H](C(=O)N[C@@H](CCOC)C(=O)N[C@@H](CO)C(=O)N[C@@H](CCCNC(=N)N)C(N)=O)[C@@H](C)CC)NC(=O)[C@H](CO)NC(=O)[C@H](CC(C)C)NC(=O)[C@H](CCC(N)=O)NC(=O)[C@H](C)NC(=O)[C@H](CC(C)C)NC(=O)[C@H](C(C)C)NC1=O)[C@@H](C)O` [SP-68] (H-[NMeY]ADAIFTASYR[R8]VLAQLS[S5]RKALQDI[hSer](Me)SR-NH2; staple 12-19) returned an EC50 of 10 to 25 nM.
